Reference: patent publication US9816227B2, “Textile products with herbal composition to render the fabrics insects repellent” (priority 2013, dated 2017)

Key:
[1] = tested on: desert locust (Schistocerca gregaria); details: in vivo; cited from earlier work
[2] = exposed to light and water; cited from earlier work
[3] = tested on: insects (larvae, pupae, adults); test: Exposure of insect larvae: inhibition of development to pupae and adults; format: in vivo
Excerpt: The possible effect of azadirachtin and other bioflavonoids including azadiradione, fraxinellone, nimbin, salannin, salannol, vepinin and vilasinin, the active components of the Neem seed oil extract, are inhibiting molting in larvae to pupae and adults of the most of the insects. Apart from delayed lethal action, effects on the pupation, adult emergence, and size of pupae or adults have been also observed. […] The compounds are characterized by their inhibition or prevention of formation of adult morphology. The effects on pupae (based on proportion of undeveloped individuals) and adults (based on incomplete development, attachment to puparia, or inability to fly) are dose-dependent.
No adults of insects are obtained at doses of 1.10, 10 and 100 μg/ml. These concentrations cause about 100% mortality of larvae or developed pupae. […] The treatments with 0.00001 and 0.001 μg/ml would result in an insignificant increase (0.8-1.6%) in the female wing length/width.

Structure (SMILES): C/C=C(\C)C(=O)O[C@H]1C[C@@H](OC(C)=O)[C@@]2(C(=O)OC)CO[C@H]3[C@@H](O)[C@@](C)([C@]45O[C@@]4(C)[C@H]4C[C@@H]5O[C@@H]5OC=C[C@@]54O)[C@H]4[C@]1(CO[C@]4(O)C(=O)OC)[C@@H]32 [azadirachtin, dimethyl (2aR,3S,4S,R,S,7aS,8S,10R,10aS,10bR)-10-(acetyloxy)-3,5-dihydroxy-4-[(1S,2S,6S,8S,9R,11S)-2-hydroxy-11-methyl-5,7,10-trioxatetracyclo[6.3.1.02,6.09,11]dodec-3-en-9-yl]-4-methyl-8-{[(2E)-2-methylbut-2-enoyl]oxy}octahydro-1H-furo[3′,4′:4,4a]naphtho[1,8-bc]furan-5,10a(8H)-dicarboxylate]
- feeding inhibitor activity [1]: active
- degradation time [2]: ≤ 100 h
- increase in the female wing length/width ([3]; 0.00001 and 0.001 μg/ml, insignificant): 0.8-1.6%
- effect on wing dimensions of females ([3]; 0.001, 0.01 and 0.1 μg/ml): do not significantly affect
- pupal weights and dimensions, adult weights, wing dimensions, or interocular distances ([3]; treatment of larvae with 0.00001 to 0.1 μg/ml): significant reductions
